This is an account of results in ChEMBL document CHEMBL1909046, “DrugMatrix in vitro pharmacology data”.

Assay [1] deals with T1, Substance-K receptor (Homo sapiens, UniProt P21452).
T1 sequence (P21452 whole entry): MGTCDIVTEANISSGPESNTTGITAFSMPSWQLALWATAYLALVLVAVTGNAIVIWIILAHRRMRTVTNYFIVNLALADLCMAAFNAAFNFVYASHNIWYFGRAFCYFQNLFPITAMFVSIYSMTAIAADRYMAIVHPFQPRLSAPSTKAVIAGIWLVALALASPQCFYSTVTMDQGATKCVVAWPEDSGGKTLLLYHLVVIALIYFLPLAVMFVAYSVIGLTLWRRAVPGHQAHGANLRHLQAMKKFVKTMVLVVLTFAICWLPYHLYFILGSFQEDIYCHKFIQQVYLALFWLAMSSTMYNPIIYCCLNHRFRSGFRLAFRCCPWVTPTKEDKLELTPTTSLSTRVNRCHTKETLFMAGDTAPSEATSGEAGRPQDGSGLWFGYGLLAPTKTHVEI
The format is cell membranes, CHO, Membrane. To be noted: cho.

Assay [2] has as its target Protein phosphatase 3 catalytic subunit alpha (Homo sapiens, UniProt Q08209). Set-up: species or system Escherichia coli.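 Also: inhibition of calcineurin (PP2B) enzyme activity, measured with DiFMUP as the substrate; in other assays of this panel Not Active means under 50% inhibition at 10 µM.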
Assay [3] addresses Glycine receptor (Rattus norvegicus, UniProt P22771+P24524+P07727+P20781). The format is cell membranes, Wistar, Spinal cord, Membrane.
The target of assay [4] is T2, Receptor-type tyrosine-protein phosphatase C (Homo sapiens, UniProt P08575).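 Also: inhibition of CD45 enzyme activity measured using DiFMUP as substrate; in other assays of this panel Not Active means under 50% inhibition at 10 µM.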
T2 sequence (P08575 whole entry): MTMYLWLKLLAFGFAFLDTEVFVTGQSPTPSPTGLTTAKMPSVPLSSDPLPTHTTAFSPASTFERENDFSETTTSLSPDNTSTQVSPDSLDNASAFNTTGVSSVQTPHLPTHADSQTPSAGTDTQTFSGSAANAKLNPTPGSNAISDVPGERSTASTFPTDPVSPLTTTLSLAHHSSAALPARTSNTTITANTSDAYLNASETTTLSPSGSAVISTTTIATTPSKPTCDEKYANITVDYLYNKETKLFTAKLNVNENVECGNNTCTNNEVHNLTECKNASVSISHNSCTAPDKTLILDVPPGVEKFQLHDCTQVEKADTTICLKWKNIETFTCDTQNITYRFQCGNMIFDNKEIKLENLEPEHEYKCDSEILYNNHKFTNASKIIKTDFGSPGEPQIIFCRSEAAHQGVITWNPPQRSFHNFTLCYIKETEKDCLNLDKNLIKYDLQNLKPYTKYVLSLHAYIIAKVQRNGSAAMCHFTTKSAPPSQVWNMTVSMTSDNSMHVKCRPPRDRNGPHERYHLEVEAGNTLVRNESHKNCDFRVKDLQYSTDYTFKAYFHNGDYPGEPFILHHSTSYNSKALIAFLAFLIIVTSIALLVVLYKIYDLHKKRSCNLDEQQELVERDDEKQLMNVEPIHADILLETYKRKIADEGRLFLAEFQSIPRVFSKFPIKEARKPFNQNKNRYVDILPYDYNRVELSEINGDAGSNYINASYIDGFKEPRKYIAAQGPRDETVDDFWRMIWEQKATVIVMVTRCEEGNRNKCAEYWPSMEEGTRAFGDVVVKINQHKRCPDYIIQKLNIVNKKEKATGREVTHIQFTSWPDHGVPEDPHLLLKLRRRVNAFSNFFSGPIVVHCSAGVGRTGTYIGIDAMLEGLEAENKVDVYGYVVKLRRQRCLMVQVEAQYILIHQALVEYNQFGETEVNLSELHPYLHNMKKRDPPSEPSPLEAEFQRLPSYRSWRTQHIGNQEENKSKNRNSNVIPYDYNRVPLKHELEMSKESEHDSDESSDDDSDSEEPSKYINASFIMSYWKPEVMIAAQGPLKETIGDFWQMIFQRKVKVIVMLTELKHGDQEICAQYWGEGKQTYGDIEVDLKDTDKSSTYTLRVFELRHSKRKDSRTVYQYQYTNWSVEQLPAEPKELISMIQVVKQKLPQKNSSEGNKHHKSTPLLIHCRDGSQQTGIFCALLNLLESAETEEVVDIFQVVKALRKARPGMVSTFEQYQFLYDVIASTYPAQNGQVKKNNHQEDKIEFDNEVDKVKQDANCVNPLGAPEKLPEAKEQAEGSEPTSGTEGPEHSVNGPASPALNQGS
Also noted: species or system Escherichia coli.

The nature of assay [5]: DRUGMATRIX: Imidazoline I2, Central radioligand binding (ligand: [3H] Idazoxan). Type of assay: cell membranes, Rattus norvegicus, Wistar, Cerebral cortex, Membrane. To be noted: Not Active = under 50% inhibition at 10 µM.
Assay [6] deals with Mu-type opioid receptor (Homo sapiens, UniProt P35372). Description: DRUGMATRIX: Opiate mu (OP3, MOP) radioligand binding (ligand: [3H] Diprenorphine). To be noted: cho-k1; Not Active = under 50% inhibition at 10 µM. The format is cell membranes, CHO-K1, Membrane.
Sequence of Mu-type opioid receptor (P35372 whole entry): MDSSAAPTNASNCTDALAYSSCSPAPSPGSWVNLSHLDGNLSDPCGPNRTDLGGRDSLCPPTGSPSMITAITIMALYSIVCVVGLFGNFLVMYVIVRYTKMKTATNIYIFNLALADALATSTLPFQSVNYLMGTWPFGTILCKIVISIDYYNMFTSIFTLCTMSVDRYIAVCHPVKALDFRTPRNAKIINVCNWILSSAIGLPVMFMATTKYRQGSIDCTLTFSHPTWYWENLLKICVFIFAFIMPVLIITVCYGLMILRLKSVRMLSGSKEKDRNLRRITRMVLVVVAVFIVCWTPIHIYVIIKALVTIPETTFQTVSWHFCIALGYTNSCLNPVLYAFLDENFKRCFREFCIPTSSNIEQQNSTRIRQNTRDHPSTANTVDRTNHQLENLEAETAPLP

For the molecule `Clc1ccccc1CN1CCc2sccc2C1` [TICLOPIDINE], the IC50 (commonly the concentration that inhibits the measured activity by half) is “Not Active” in assay [1]; “Not Active” in assay [2]; “Not Active” in assay [3]; “Not Active” in assay [4]; 2240 nM in assay [5] (read-out: IC50); “Not Active” in assay [6]. In addition, the Ki (usually a dissociation constant, usually derived from enzyme kinetics or from competition with a known ligand) in assay [5] (read-out: Ki) worked out at 1490 nM.

Regarding `NC1CCN(c2nc3c(cc2F)c(=O)c(C(=O)O)cn3-c2ccc(F)cc2F)C1` (stereo unspecified) [TOSUFLOXACIN], the IC50 entry in assay [1], in assay [2], in assay [3], in assay [4], in assay [5] and in assay [6] was “Not Active” each time. Besides, the Ki entry in assay [5] was “Not Active”.

Regarding `CC(c1cc2ccccc2s1)N(O)C(N)=O` (stereo unspecified) [ZILEUTON], the IC50 result in assay [1], in assay [2], in assay [3], in assay [4], in assay [5] and in assay [6] was “Not Active” in each case. Further, the Ki result in assay [5] is recorded as “Not Active”.
